The target of experiment [1] is recombinant E. coli BioA (Escherichia coli, UniProt P12995). As to the kind of experiment: BioA inhibition through a feeding assay of a bioA auxotroph. The class given is biochemical. Conditions: relative to DMSO control. Here is the method: To determine if the step catalyzed by BioA was the target of this inhibitor, the inhibitory activity of MAC-0013772 against recombinant E. coli BioA was assayed through a feeding assay of a bioA auxotroph.

The test system of experiment [2] is Mycobacteria smegmatis. As to the kind of experiment: MIC against Mycobacteria smegmatis in absence and presence of biotin. The format is cell-based.
Experiment [3] deals with E. coli MG1655. As to the kind of experiment: Minimum inhibitory concentration (MIC) determination. Conditions: for MIC: Escherichia coli.
Method: The MIC values were determined in liquid minimal media and minimal media supplemented with amino acids, vitamins and nucleobases.
A single colony of E. coli MG1655 was grown overnight in 5 ml of M9 minimal media. The saturated culture was diluted 1/50 in fresh minimal media and allowed to grow until the OD600 reached ˜0.4. […] After mixing of the bacterial culture with the compounds, the OD600 of the plates was read using Envision to account for background absorbance. The plates were then incubated in a 37° C. stationary incubator for 16 hours before measuring their OD600. After subtracting any background absorbance contributed by colored or precipitated compounds, the MIC was defined as the lowest concentration of antibiotic that inhibits visible growth.
Experiment [4] deals with E. coli MG1655. As to the kind of experiment: Metabolic suppression profiling (ChemArray). The class given is cell-based. Conditions: 4× MIC in M9 minimal media; for metabolic suppression profile: metabolites that suppress growth inhibitory activity: ChemArray.
[5] abbreviates: absence of biotin, read-out: MIC −bio.
The mark [6] stands for this setting: presence of 2 nM of biotin, read-out: MIC +bio.
Setting [7] is: MG1655, 16 h, read-out: MIC +bio, presence of 2 nM of biotin.
[8] abbreviates: MG1655, read-out: MIC −bio, absence of biotin.

Values after ≈ are worked out from the molar mass of the structure shown. Like-named read-outs stand apart in the source and are kept apart here.

Sequence of recombinant E. coli BioA (P12995 whole entry): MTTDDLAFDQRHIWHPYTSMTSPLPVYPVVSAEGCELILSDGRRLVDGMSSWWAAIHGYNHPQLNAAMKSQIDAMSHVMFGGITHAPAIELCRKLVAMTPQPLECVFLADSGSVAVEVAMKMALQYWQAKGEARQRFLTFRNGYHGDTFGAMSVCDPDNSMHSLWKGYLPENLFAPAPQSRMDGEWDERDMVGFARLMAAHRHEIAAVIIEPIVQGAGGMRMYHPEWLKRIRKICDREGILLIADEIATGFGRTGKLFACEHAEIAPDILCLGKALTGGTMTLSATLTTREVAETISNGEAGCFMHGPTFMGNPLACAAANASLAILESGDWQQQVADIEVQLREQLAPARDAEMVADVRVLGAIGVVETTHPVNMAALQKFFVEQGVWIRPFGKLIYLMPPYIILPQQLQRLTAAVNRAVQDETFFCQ

A word on the inhibition: it is the drop in the measured response relative to a control, in per cent. For orientation: MIC means the least concentration at which growth counts as inhibited. As for `CSCC(=O)NN` [Compound 2a], the inhibition at 1 µM in experiment [1] amounted to 50%. In addition, in experiment [1], the inhibition at 10 µM worked out at 64%. For the same compound, the MIC in experiment [2] (setting [5]) is 32 µg/mL; in experiment [2] (setting [6]), 32 µg/mL; in experiment [3] (setting [7]) it was 64 µg/mL; in experiment [3] (setting [8]) it was 64 µg/mL (≈ 533 µM). Also, in experiment [3] (presence of biotin), the “suppression of growth inhibition in the presence of biotin (in words)” value is listed as “not suppressed”.

On to `O=C(O)CSc1ccccc1[N+](=O)[O-]` [Compound 1n], for which the inhibition at 1 µM in experiment [1] is 0%. Also, the inhibition at 10 µM in experiment [1] turned out to be 0%. Moreover, the minimal inhibitory concentration (MIC) in experiment [2] (setting [5]), in experiment [2] (setting [6]), in experiment [3] (setting [7]) and in experiment [3] (setting [8]) was above 256 µg/mL throughout.

In the case of `NNC(=O)CSc1ccc2ccccc2c1` [Compound 2h, 2-(naphthalen-2-ylthio)acetohydrazide], the inhibition at 1 µM in experiment [1] came to 71%. Further, the inhibition at 10 µM in experiment [1] is 100%. Further, the MIC was 32 µg/mL in experiment [2] (setting [5]), above 256 µg/mL in experiment [2] (setting [6]), above 256 µg/mL in experiment [3] (setting [7]) and above 256 µg/mL in experiment [3] (setting [8]).

For `COc1cc(Cc2cnc(N)nc2N)cc(OC)c1OC` [Trimethoprim, reference compound], the “metabolic suppression profile: metabolites that suppress growth inhibitory activity” value in experiment [4] is “only be suppressed by providing a mixture of all supplements or at least a mixture of amino acids and nucleobases”.

For the compound `COc1ccccc1SCC(=O)NN` [Compound 1i, 2-(2-methoxyphenylthio)acetohydrazide], the inhibition at 1 µM in experiment [1] worked out at 65%. The inhibition at 10 µM in experiment [1] worked out at 100%. In addition, the MIC was 16 µg/mL in experiment [2] (setting [5]), above 256 µg/mL in experiment [2] (setting [6]), above 256 µg/mL in experiment [3] (setting [7]) and 128 µg/mL (≈ 603 µM) in experiment [3] (setting [8]).

In the case of `CCn1cc(C(=O)O)c(=O)c2cc(F)c(N3CCNCC3)cc21` [norfloxacin, reference compound], the “metabolic suppression profile: metabolites that suppress growth inhibitory activity” value in experiment [4] is recorded as “not altered in the presence of supplements”.

Turning to `NNC(=O)CSc1ccccc1N` [Compound 1g, 2-(2-aminophenylthio)acetohydrazide], in experiment [1], the inhibition at 1 µM was found to be 58%. The inhibition at 10 µM in experiment [1] turned out to be 100%. For the same compound, the MIC is 32 µg/mL in experiment [2] (setting [5]), 256 µg/mL in experiment [2] (setting [6]), above 256 µg/mL in experiment [3] (setting [7]) and 256 µg/mL (≈ 1300 µM) in experiment [3] (setting [8]).

Turning to `NNC(=O)C1Cc2ccccc2S1` (stereo not drawn) [Compound 2f, 2,3-dihydrobenzo[b]thiophene-2-carbohydrazide], in experiment [1], the inhibition at 1 µM is 15%. In experiment [1], the inhibition at 10 µM is 69%. For the same compound, the MIC is 64 µg/mL in experiment [2] (setting [5]), above 256 µg/mL in experiment [2] (setting [6]), above 256 µg/mL in experiment [3] (setting [7]) and above 256 µg/mL in experiment [3] (setting [8]).

With `NNC(=O)CSCc1ccccc1` [Compound 2g, 2-(benzylthio)acetohydrazide], the inhibition at 1 µM in experiment [1] is 60%. Besides, the inhibition at 10 µM in experiment [1] worked out at 100%. For the same compound, in experiment [2], the “antibacterial potency against M. smegmatis compared with MAC-0013772 (in words)” value was “potencies similar to that of MAC-0013772”. For the same compound, the MIC was 8 µg/mL in experiment [2] (setting [5]), above 256 µg/mL in experiment [2] (setting [6]), above 256 µg/mL in experiment [3] (setting [7]) and 64 µg/mL (≈ 326 µM) in experiment [3] (setting [8]).

Regarding `NNC(=O)CSc1ccccc1` [Compound 1c, 2-(phenylthio)acetohydrazide], in experiment [1], the inhibition at 1 µM was 49%. For the same compound, the inhibition at 10 µM in experiment [1] is 100%. In experiment [2], the “antibacterial potency against M. smegmatis compared with MAC-0013772 (in words)” value is on record as “potencies similar to that of MAC-0013772”. Further, the MIC was 4 µg/mL in experiment [2] (setting [5]), above 256 µg/mL in experiment [2] (setting [6]), above 256 µg/mL in experiment [3] (setting [7]) and 64 µg/mL (≈ 351 µM) in experiment [3] (setting [8]).

`O=C(CCN1CCCCC1)c1ccc2c(c1)OCCCO2` [MAC-0162065, 1-(3,4-dihydro-2H-benzo[b][1,4]dioxepin-7-yl)-3-(piperidin-1-yl)propan-1-one]: the “suppression of growth inhibitory activity by glycine” value in experiment [4] is “strongly suppressed”.

For the compound `CN(C)CCC(=O)c1ccc2c(c1)OCCO2` [MAC-0161738, 1-(2,3-dihydrobenzo[b][1,4]dioxin-6-yl)-3-(dimethylamino)propan-1-one], in experiment [4], the “suppression of growth inhibitory activity by glycine” value was “strongly suppressed”.

Consider `CC(=O)NNC(=O)CSc1ccc([N+](=O)[O-])cc1` [Compound 1j], for which the inhibition at 1 µM in experiment [1] is 0%. Besides, the inhibition at 10 µM in experiment [1] was 0%. Moreover, the MIC in experiment [2] (setting [5]), in experiment [2] (setting [6]), in experiment [3] (setting [7]) and in experiment [3] (setting [8]) was above 256 µg/mL throughout.

For the compound `NNC(=O)CSc1ccc([N+](=O)[O-])cc1` [Compound 1b, 2-(4-nitrophenylthio)acetohydrazide], in experiment [1], the inhibition at 1 µM amounted to 66% and the inhibition at 10 µM was 100%. For the same compound, in experiment [2], the “antibacterial potency against M. smegmatis compared with MAC-0013772 (in words)” value is “potencies similar to that of MAC-0013772”. In experiment [2] (setting [5]), the MIC came to 4 µg/mL. The MIC in experiment [2] (setting [6]) is above 256 µg/mL.

The values above are taken from patent US20150237857A1, “ANTIBACTERIAL INHIBITORS” (MCMASTER UNIVERSITY, priority 2012, published 2015).
